Tests used:
serum ceruloplasmin (Cp) = experiment: Copper status by serum ceruloplasmin (oxidase activity) in mice; assay type: in vivo, mouse; conditions: for Ceruloplasmin Values: Ex 1 Exp 2
Description: Copper status. In the presence of TM therapy, copper status is difficult to assess by measuring serum copper directly, since a slowly turning over tripartite complex of TM, copper, and albumin accumulates, causing the serum copper to be elevated even though availability of copper is decreasing. However, the inventors have previously determined that serum ceruloplasmin (Cp) is a good surrogate marker of copper status (G J Brewer et al., Clin. Cancer, 6: 1-10 [2000]), because the liver secretes this copper containing protein into the blood at a rate dependent upon copper availability. Copper status was followed by assaying serum ceruloplasmin (Cp), by measuring its oxidase activity (K H Schosinsky et al., Clin. Chem., 20(12)1556-1563 [1974]). Blood was obtained from the tail vein of the mice. To avoid excessive bleeding, only one mouse from each group was bled at any time point during the study, and mice were rotated so that different mice were bled at the different time points. A Cp assay in all mice was done at time of sacrifice.
Copper status. In the presence of TM therapy, copper status cannot be assessed by direct measurement of serum copper because of the accumulation of a tripartite complex of TM, copper, and albumin that turns over slowly, causing the serum copper to be increased even though availability of copper is decreasing. […] Copper status was monitored by assaying serum ceruloplasmin on the basis of its oxidase activity in blood from the tail vein. To avoid excessive bleeding, one mouse from each group was bled at each time point; mice were rotated so that different mice were bled. A ceruloplasmin assay was conducted in each mouse when it was killed.

Con A mouse model [1] = experiment: Serum ALT in the Con A mouse model of liver damage; assay type: in vivo; conditions: for Serum ALT / Serum ALT, Mean: Ex 5 Exp 1; for Serum ALT: one mouse; for Serum ALT, Mean: after 4th injection
Description: (§1) A study was carried out in a mouse model of concanavilin A (Con A) production of liver cirrhosis. There were four experimental groups of several mice each. […] The Con A was injected intravenously once weekly into mice (0.3 mg/mouse/week), and produced a hepatitis, which is manifested by an increasing level of alanine transaminase (ALT) enzymes in the blood. The TM was given once daily by […] in a dose of 0.7 mg/mouse/day beginning 7 days prior to ConA treatment. During days 9 to 11 after Con A, the TM-treated mice received 1.2 mg of TM daily, to ensure adequate lowering of copper levels, and then received 0.7 mg daily for the duration of the study. A blood sample was obtained 28 days after ConA treatment, and the mice were sacrificed on the same day. Serum alanine transaminase (ALT) was measured in Sigma-Frankel (SF) units, where one unit is the formation of 0.000482 umoles of glutamate/minute at pH 7.5 and 25 ° C.
This example describes additional TM treatment experiments in the model Concanavalin (Con A) mouse model of liver damage. As described previously, in the Con A mouse model, intravenously administered Con A produces an inflammatory reaction and cell damage in the animal's liver that is marked by the release hepatic transaminase enzymes, such as […] (ALT), into the blood. Several different experiments are reported in this example
Twenty-four hours after each of the first three injections, one mouse from each group was bled, and serum ALT measured. In this experiment, TM was started in the TM treated mice before the first Con A injection. After the fourth injection of Con A, all the mice were bled for ALT and Cp measurements and the experiment terminated. The Cp levels in TM treated mice were 25-50% of non-TM treated animals.
In a second experiment, Con A was given in weekly injections for four weeks, prior to any treatment with TM. The objective was to see if TM treatment would be useful after considerable organ damage had been allowed to occur. Then, one group of Con A treated animals were initiated on TM therapy.

Con A mouse model [2] = experiment: Liver histological examination in the Con A mouse model; assay type: in vivo; conditions: Ex 4; Con A mice
Description: as §1

TGFβ = TGFβ ELISA in brain homogenates of Tg2576 mice; assay type: in vivo, mouse; conditions: Ex 8; TM-treated Tg2576 mice
Description: Brain homogenates of left hemi-brains are used for detection of human Aβ40 and Aβ42 by ELISA, as previously described (J Gau J et al., Amer. J. Pathology, 160 2:731-738 […]). Homogenates are centrifuged at 7840×g for 5 minutes at 4 ° C. to remove insoluble material. A sandwich ELISA is performed on the supernatants using BAN50 as the capture antibody and either horseradish peroxidase-coupled BA-27 or BC-05 as the detection antibody for Aβ40 or Aβ42, respectively. BAN-50 is a monoclonal antibody specific for Aβ1-10. All samples are measured in triplicate. Standard curves for the ELISA are constructed using pure human Aβ40 and Aβ42 (Bachem). In addition to measurements of Aβ, a commercially available ELISA is used to detect TGFβ levels in brain homogenates of the two groups.

[3] = system: vascular endothelial growth factor (VEGF); experiment: Retinopathy of prematurity in newborn mice; assay type: in vivo, mouse; conditions: hyperoxia then room air
Description: The present invention also contemplates the antiangiogenic therapeutic effects of TM in diseases of neovascularization besides cancer (e.g., animal models of retinopathy). In retinopathy of prematurity, newborn mice exposed to hyperoxia for five days develop a marked retinopathy after four days exposure to room air, with a peak of a major angiogenic stimulus, vascular endothelial growth factor (VEGF), at 24 hours.

LEC rat model = conditions: LEC rats, late stages of liver disease; cited from earlier work

Compound: [SH-].[SH-].[S]=[Mo]=[S] [TM, tetrathiomolybdate]
- Ceruloplasmin (serum ceruloplasmin (Cp); Ex 1 Exp 1, Bleomycin/TM group, sacrifice day 21): 13.9 ± 3.3 I.U
- mean ceruloplasmin relative to saline controls (serum ceruloplasmin (Cp); Ex 1 Exp 1, TM alone (group 4)): about 80%
- Ceruloplasmin (serum ceruloplasmin (Cp); Ex 1 Exp 1, TM only group, sacrifice day 21): 18.1 ± 3.4 I.U
- mean ceruloplasmin level relative to bleomycin animals (serum ceruloplasmin (Cp); Ex 1 Exp 1, bleomycin/TM mice (group 3)): about 55%
- Ceruloplasmin Values (serum ceruloplasmin (Cp); TM 0.3 mg/day/mouse, day 14, single mouse): 23.6 International Units
- Ceruloplasmin Values (serum ceruloplasmin (Cp); TM 0.3 mg/day/mouse, day 21 (sacrifice), mean and standard error of four mice): 5.4 ± 2.7 International Units
- Ceruloplasmin Values (serum ceruloplasmin (Cp); TM 0.5 mg/day/mouse, day 8, single mouse): 14.4 International Units
- Ceruloplasmin Values (serum ceruloplasmin (Cp); TM 0.5 mg/day/mouse, day 14, single mouse): 10.6 International Units
- Ceruloplasmin Values (serum ceruloplasmin (Cp); TM 0.5 mg/day/mouse, day 21, mean and SE of four mice): 4.5 ± 2.7 International Units
- Ceruloplasmin Values (serum ceruloplasmin (Cp); TM 0.7 mg/day/mouse, day 8, single mouse): 12.6 International Units
- Ceruloplasmin Values (serum ceruloplasmin (Cp); TM 0.7 mg/day/mouse, day 14, single mouse): 15.5 International Units
- Ceruloplasmin Values (serum ceruloplasmin (Cp); TM 0.7 mg/day/mouse, day 21, mean and SE of four mice): 4.7 ± 2.2 International Units
- Ceruloplasmin Values (serum ceruloplasmin (Cp); TM 0.9 mg/day/mouse, day 8, single mouse): 0.6 International Units
- Ceruloplasmin Values (serum ceruloplasmin (Cp); TM 0.9 mg/day/mouse, day 14, single mouse): 3.7 International Units
- Ceruloplasmin Values (serum ceruloplasmin (Cp); TM 0.9 mg/day/mouse, day 21, mean and SE of four mice): 1.8 ± 0.7 International Units
- Ceruloplasmin Values (serum ceruloplasmin (Cp); TM maintenance 0.3 mg/day/mouse, day 8, single mouse): 20.3 International Units
- mean Cp levels in TM treated groups relative to non-TM treated groups (serum ceruloplasmin (Cp); Ex 2 Exp 1, TM 1.2 mg/day 4 days before bleomycin then 0.9 mg/day, sacrifice day 7): approximately half
- mean Cp level of bleomycin/TM group as % of the bleomycin group mean (serum ceruloplasmin (Cp); Ex 2 Exp 2, TM started 5 days after bleomycin, sacrifice day 21): 38%
- mean Cp of TM control group as % of the saline control group mean (serum ceruloplasmin (Cp); Ex 2 Exp 2, sacrifice day 21): 50%
- serum Cp levels relative to baseline levels (serum ceruloplasmin (Cp); daily gavage of 0.7 mg TM/mouse): 25-50%
- ConA induced increase of serum alanine transaminase (ALT) (Con A mouse model [1]; Ex 4, TM 0.7 mg/mouse/day from 7 days before ConA, 28 days): almost completely inhibits
- Serum ALT (Con A mouse model [1]; Con A + TM, 24 h after 1st Con A injection): 52 Sigma-Frankel units
- Serum ALT (Con A mouse model [1]; Con A + TM, after 2nd injection): 50 Sigma-Frankel units
- Serum ALT (Con A mouse model [1]; Con A + TM, after 3rd injection): 63 Sigma-Frankel units
- Serum ALT, Mean (Con A mouse model [1]; Con A + TM, n 4): 74^2,3 Sigma-Frankel units
- Serum ALT (Con A mouse model [1]; TM only control, 24 h after 1st injection): 85 Sigma-Frankel units
- Serum ALT (Con A mouse model [1]; TM only control, after 2nd injection): 39 Sigma-Frankel units
- Serum ALT (Con A mouse model [1]; TM only control, after 3rd injection): 49 Sigma-Frankel units
- Serum ALT, Mean (Con A mouse model [1]; TM only control, n 3): 38 Sigma-Frankel units
- ALT values (Con A mouse model [1]; Ex 5 Exp 2, TM started after four weeks of weekly Con A, Con A continued): returned to normal
- histological examination: inflammation and early bridging fibrosis (Con A mouse model [2]): not in the TM treated animals
- levels of TGFβ in brain homogenates (TGFβ): significant reduction
- VEGF peak [3]: strong inhibition
- retinal neovascularization [3]: dramatic reduction
- efficacy against copper toxicity / liver disease (LEC rat model): very effective
